Test results from patent US11208400B2, “Substituted 6-(1H-pyrazol-1-yl)pyrimidin-4-amine derivatives and uses thereof” (Bayer Aktiengesellschaft, priority 2016, dated 2021).

target: T1, human Npt2a (Homo sapiens, UniProt Q06495); experiment: Npt2a activity cell based assay, membrane potential dye, CHO T-REx hNpt2a cells; settings: doxycycline-induced, depolarization by sodium phosphate influx, average or median values if tested more than once
T1 construct: expressed in transfected cells
T1 sequence (Q06495 1-639): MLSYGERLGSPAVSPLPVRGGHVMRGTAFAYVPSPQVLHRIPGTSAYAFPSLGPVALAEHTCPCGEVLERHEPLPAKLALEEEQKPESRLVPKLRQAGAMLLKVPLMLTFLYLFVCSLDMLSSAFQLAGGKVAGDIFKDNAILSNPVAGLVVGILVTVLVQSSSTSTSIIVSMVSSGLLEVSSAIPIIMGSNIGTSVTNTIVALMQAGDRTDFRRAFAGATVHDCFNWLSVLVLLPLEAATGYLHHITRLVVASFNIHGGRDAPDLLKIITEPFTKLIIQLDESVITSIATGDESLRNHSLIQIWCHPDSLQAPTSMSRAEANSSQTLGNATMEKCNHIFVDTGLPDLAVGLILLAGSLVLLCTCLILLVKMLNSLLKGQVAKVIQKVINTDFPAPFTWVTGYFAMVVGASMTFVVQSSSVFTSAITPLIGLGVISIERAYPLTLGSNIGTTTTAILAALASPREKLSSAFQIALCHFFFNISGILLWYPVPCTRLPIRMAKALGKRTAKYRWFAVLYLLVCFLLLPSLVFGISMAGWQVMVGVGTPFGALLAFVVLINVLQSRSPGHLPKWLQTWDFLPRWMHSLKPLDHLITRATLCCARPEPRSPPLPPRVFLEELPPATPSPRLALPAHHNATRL
Procedure, shortened: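 Doxycycline-induced (0.5 μg/mL, 24 h) CHO T-REx cells were loaded with membrane potential dye in sodium-free NHE buffer (pH 7.4) and exposed to compound (50 μM–1 nM, 5 min, room temperature).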

Compound | IC50
CCOC(=O)c1c(C)nn(-c2cc(Nc3c(C)c(-c4ccc(F)cn4)nn3CCOC)ncn2)c1C [Example 545, ethyl 1-(6-{[3-(5-fluoropyridin-2-yl)-1-(2-methoxyethyl)-4-methyl-1H-pyrazol-5-yl]amino}pyrimidin-4-yl)-3,5-dimethyl-1H-pyrazole-4-carboxylate] | 14 nM
Cc1nn(-c2cc(Nc3nn(CC4CC4)c(-c4ccc(F)cc4)c3Cl)ncn2)c2cnccc12 [Example 207, N-[4-chloro-1-(cyclopropylmethyl)-5-(4-fluorophenyl)-1H-pyrazol-3-yl]-6-(3-methyl-1H-pyrazolo[3,4-c]pyridin-1-yl)pyrimidin-4-amine] | 18 nM
CCOC(=O)c1c(C)nn(-c2cc(Nc3nn(C)c(-c4ccc(F)cc4)c3Cl)ncn2)c1C [Example 356, ethyl 1-(6-{[4-chloro-5-(4-fluorophenyl)-1-methyl-1H-pyrazol-3-yl]amino}pyrimidin-4-yl)-3,5-dimethyl-1H-pyrazole-4-carboxylate] | 2 nM
Cc1cc(C)n(-c2cc(Nc3nn(C)c(-c4ccc(F)cc4)c3C3CC3)ncn2)n1 [Example 41, N-[4-cyclopropyl-5-(4-fluorophenyl)-1-methyl-1H-pyrazol-3-yl]-6-(3,5-dimethyl-1H-pyrazol-1-yl)pyrimidin-4-amine] | 11 nM
Cc1nn(-c2cc(Nc3c(C)c(-c4ccc(F)cc4)nn3CC3CC3)ncn2)c(C)c1[N+](=O)[O-] [Example 466, N-[1-(cyclopropylmethyl)-3-(4-fluorophenyl)-4-methyl-1H-pyrazol-5-yl]-6-(3,5-dimethyl-4-nitro-1H-pyrazol-1-yl)pyrimidin-4-amine] | 11 nM
Cc1cc(C)n(-c2cc(Nc3nn(C)c(-c4ccc(F)cc4)c3OC(F)F)ncn2)n1 [Example 400, N-[4-(difluoromethoxy)-5-(4-fluorophenyl)-1-methyl-1H-pyrazol-3-yl]-6-(3,5-dimethyl-1H-pyrazol-1-yl)pyrimidin-4-amine] | 6 nM
Cc1nn(-c2cc(Nc3c(C)c(-c4ccc(C#N)cc4)nn3CC3CC3)ncn2)c(C)c1C#N [Example 352, 1-(6-{[3-(4-cyanophenyl)-1-(cyclopropylmethyl)-4-methyl-1H-pyrazol-5-yl]amino}pyrimidin-4-yl)-3,5-dimethyl-1H-pyrazole-4-carbonitrile] | 25 nM
CNc1ccc(-c2nn(CC3CC3)c(Nc3cc(-n4nc(C)c(Cl)c4C)ncn3)c2C)cc1 [Example 417, 6-(4-chloro-3,5-dimethyl-1H-pyrazol-1-yl)-N-{1-(cyclopropylmethyl)-4-methyl-3-[4-(methylamino)phenyl]-1H-pyrazol-5-yl}pyrimidin-4-amine] | 27 nM
Cc1cc(C(F)F)n(-c2cc(Nc3nn(C)c(-c4ccc(F)cc4)c3C)ncn2)n1 [Example 69, 6-[5-(difluoromethyl)-3-methyl-1H-pyrazol-1-yl]-N-[5-(4-fluorophenyl)-1,4-dimethyl-1H-pyrazol-3-yl]pyrimidin-4-amine] | 8.4 nM
Cc1cc(C(F)F)n(-c2cc(Nc3c(C4CC4)c(-c4ccc(F)cc4)nn3C)ncn2)n1 [Example 96, N-[4-cyclopropyl-3-(4-fluorophenyl)-1-methyl-1H-pyrazol-5-yl]-6-[5-(difluoromethyl)-3-methyl-1H-pyrazol-1-yl]pyrimidin-4-amine] | 110 nM
COc1c(-c2ccc(C#N)cc2)nn(CC2CC2)c1Nc1cc(-n2nc(C)c(C(C)=O)c2C)ncn1 [Example 318, 4-[5-{[6-(4-acetyl-3,5-dimethyl-1H-pyrazol-1-yl)pyrimidin-4-yl]amino}-1-(cyclopropylmethyl)-4-methoxy-1H-pyrazol-3-yl]benzonitrile] | 790 nM
COc1c(-c2ccc(F)cc2)nn(CC2CC2)c1Nc1cc(-n2nc(C)cc2C)ncn1 [Example 315, N-[1-(cyclopropylmethyl)-3-(4-fluorophenyl)-4-methoxy-1H-pyrazol-5-yl]-6-(3,5-dimethyl-1H-pyrazol-1-yl)pyrimidin-4-amine] | 99 nM
Cc1nnc(-c2c(C)nn(-c3cc(Nc4c(C)c(-c5ccc(F)cc5)nn4CC4CC4)ncn3)c2C)o1 [Example 372, N-[1-(cyclopropylmethyl)-3-(4-fluorophenyl)-4-methyl-1H-pyrazol-5-yl]-6-[3,5-dimethyl-4-(5-methyl-1,3,4-oxadiazol-2-yl)-1H-pyrazol-1-yl]pyrimidin-4-amine] | 7 nM
Cc1nn(-c2cc(Nc3nn(CCC4CC4)c(-c4ccc(C#N)cc4)c3C)ncn2)c(C)c1Cl [Example 222, 4-[3-{[6-(4-chloro-3,5-dimethyl-1H-pyrazol-1-yl)pyrimidin-4-yl]amino}-1-(2-cyclopropylethyl)-4-methyl-1H-pyrazol-5-yl]benzonitrile] | 44 nM
COCCn1nc(-c2ccc(F)cc2)c(C)c1Nc1cc(-n2nc(C)c(Cl)c2C)ncn1 [Example 414, 6-(4-chloro-3,5-dimethyl-1H-pyrazol-1-yl)-N-[3-(4-fluorophenyl)-1-(2-methoxyethyl)-4-methyl-1H-pyrazol-5-yl]pyrimidin-4-amine] | 3 nM
CCOC(=O)Cc1c(C)nn(-c2cc(Nc3nn(C)c(-c4ccc(F)cc4)c3CC)ncn2)c1C [Example 87, ethyl [1-(6-{[4-ethyl-5-(4-fluorophenyl)-1-methyl-1H-pyrazol-3-yl]amino}pyrimidin-4-yl)-3,5-dimethyl-1H-pyrazol-4-yl]acetate] | 32 nM
Cc1cc(C)n(-c2cc(Nc3c(C)c(-c4ccc(C(F)F)cc4)nn3C)ncn2)n1 [Example 407, N-{3-[4-(difluoromethyl)phenyl]-1,4-dimethyl-1H-pyrazol-5-yl}-6-(3,5-dimethyl-1H-pyrazol-1-yl)pyrimidin-4-amine] | 29 nM
Cc1cc(C)n(-c2cc(Nc3nn(C)c(-c4ccc(F)cc4)c3C#N)ncn2)n1 [Example 23, 3-{[6-(3,5-dimethyl-1H-pyrazol-1-yl)pyrimidin-4-yl]amino}-5-(4-fluorophenyl)-1-methyl-1H-pyrazole-4-carbonitrile] | 315 nM
Cc1cc(C)n(-c2cc(Nc3[nH]nc(-c4ccccc4)c3C)ncn2)n1 [Example 10, 6-(3,5-dimethyl-1H-pyrazol-1-yl)-N-(4-methyl-3-phenyl-1H-pyrazol-5-yl)pyrimidin-4-amine] | 33.7 nM
Cc1cc(C)n(-c2cc(Nc3n[nH]c(-c4ccc(F)cc4F)c3Cl)ncn2)n1 [Example 6, N-[4-chloro-5-(2,4-difluorophenyl)-1H-pyrazol-3-yl]-6-(3,5-dimethyl-1H-pyrazol-1-yl)pyrimidin-4-amine] | 49 nM
Cc1nn(-c2ccc(C#N)cc2)c(C)c1Nc1cc(-n2nc(C)c(C(C)(C)O)c2C)ncn1 [Example 366, 4-[4-({6-[4-(2-hydroxypropan-2-yl)-3,5-dimethyl-1H-pyrazol-1-yl]pyrimidin-4-yl}amino)-3,5-dimethyl-1H-pyrazol-1-yl]benzonitrile] | 150 nM
Cc1c(-c2ccc(C#N)cc2)nn(C)c1Nc1cc(-n2[nH]c3c(c2=O)CCCC3)ncn1 [Example 472, 4-(1,4-dimethyl-5-{[6-(3-oxo-1,3,4,5,6,7-hexahydro-2H-indazol-2-yl)pyrimidin-4-yl]amino}-1H-pyrazol-3-yl)benzonitrile] | 880 nM
Cc1nn(-c2cc(Nc3c(C)c(-c4ccc(F)cc4)nn3CC3CC3)ncn2)c2c1C(=O)CC2 [Example 394, 1-(6-{[1-(cyclopropylmethyl)-3-(4-fluorophenyl)-4-methyl-1H-pyrazol-5-yl]amino}pyrimidin-4-yl)-3-methyl-5,6-dihydrocyclopenta[c]pyrazol-4(1H)-one] | 71 nM
CCc1c(Nc2cc(-n3nc(C)c(-c4nnc(C)o4)c3C)ncn2)nn(C)c1-c1ccc(F)cc1 [Example 271, 6-[3,5-dimethyl-4-(5-methyl-1,3,4-oxadiazol-2-yl)-1H-pyrazol-1-yl]-N-[4-ethyl-5-(4-fluorophenyl)-1-methyl-1H-pyrazol-3-yl]pyrimidin-4-amine] | 39 nM
CCOC(=O)c1c(C)nn(-c2cc(Nc3nn(C)c(-c4ccc(C#N)cc4)c3C)ncn2)c1C [Example 299, ethyl 1-(6-{[5-(4-cyanophenyl)-1,4-dimethyl-1H-pyrazol-3-yl]amino}pyrimidin-4-yl)-3,5-dimethyl-1H-pyrazole-4-carboxylate] | 5 nM
CNc1ccc(-c2nn(CC3CC3)c(Nc3cc(-n4nc(C)cc4C)ncn3)c2C)cc1 [Example 480, N-{1-(cyclopropylmethyl)-4-methyl-3-[4-(methylamino)phenyl]-1H-pyrazol-5-yl}-6-(3,5-dimethyl-1H-pyrazol-1-yl)pyrimidin-4-amine] | 375 nM
Cc1nn(-c2cc(Nc3nn(C)c(-c4ccc(C#N)cc4)c3C)ncn2)c(C(F)F)c1Cl [Example 235, 4-[3-({6-[4-chloro-5-(difluoromethyl)-3-methyl-1H-pyrazol-1-yl]pyrimidin-4-yl}amino)-1,4-dimethyl-1H-pyrazol-5-yl]benzonitrile] | 3 nM
CCc1c(Nc2cc(-n3nc(C)c4ccncc43)ncn2)nn(C)c1-c1ccc(F)cc1 [Example 168, N-[4-ethyl-5-(4-fluorophenyl)-1-methyl-1H-pyrazol-3-yl]-6-(3-methyl-1H-pyrazolo[3,4-c]pyridin-1-yl)pyrimidin-4-amine] | 15 nM
